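Interpolation was linear, between the two tested concentrations surrounding the appropriate level; five concentrations were tested over 48 hours in 96-well plates. At the GI50, growth is halved. At the TGI there is no net growth.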
Key:
Test in all cases: inhibition of tumour cell growth, NCI panel, 48 h
HL-60(TB) leukemia = system: HL-60(TB) leukemia
ACHN renal = system: ACHN renal
TK-10 renal = system: TK-10 renal
UO-31 renal = system: UO-31 renal
MDA-MB-468 breast = system: MDA-MB-468 breast
HOP-92 NSCLC = system: HOP-92 NSCLC
PC-3 prostate = system: PC-3 prostate
UACC-257 melanoma = system: UACC-257 melanoma
SF-268 CNS = system: SF-268 CNS
KM12 colon = system: KM12 colon
IGROV1 ovarian = system: IGROV1 ovarian
NCI-H23 lung = system: NCI-H23 lung
HCT-15 colon = system: HCT-15 colon
SN12C renal = system: SN12C renal
OVCAR-4 ovarian = system: OVCAR-4 ovarian
DU-145 prostate = system: DU-145 prostate
MOLT-4 leukemia = system: MOLT-4 leukemia
HOP-62 NSCLC = system: HOP-62 NSCLC
NCI/ADR-RES ovarian = system: NCI/ADR-RES ovarian
OVCAR-3 ovarian = system: OVCAR-3 ovarian
K-562 leukemia = system: K-562 leukemia
RPMI-8226 leukemia = system: RPMI-8226 leukemia
SF-539 CNS = system: SF-539 CNS
RXF 393 renal = system: RXF 393 renal
MDA-MB-435 = system: MDA-MB-435
SK-MEL-5 melanoma = system: SK-MEL-5 melanoma
NCI-H522 lung = system: NCI-H522 lung
U251 CNS = system: U251 CNS
NCI-H460 lung = system: NCI-H460 lung
MCF7 breast = system: MCF7 breast
NCI-H226 lung = system: NCI-H226 lung
SR leukemia = system: SR leukemia
SNB-19 CNS = system: SNB-19 CNS
OVCAR-8 ovarian = system: OVCAR-8 ovarian
HS 578T breast = system: HS 578T breast
HCT-116 colon = system: HCT-116 colon
SNB-75 CNS = system: SNB-75 CNS
SK-MEL-2 melanoma = system: SK-MEL-2 melanoma
COLO 205 colon = system: COLO 205 colon
BT-549 breast = system: BT-549 breast
SK-MEL-28 melanoma = system: SK-MEL-28 melanoma
SF-295 CNS = system: SF-295 CNS
HT29 colon = system: HT29 colon
CCRF-CEM leukemia = system: CCRF-CEM leukemia
A549 NSCLC = system: A549 NSCLC
A498 renal = system: A498 renal
786-0 renal = system: 786-0 renal
MALME-3M melanoma = system: MALME-3M melanoma
EKVX NSCLC = system: EKVX NSCLC
HCC-2998 colon = system: HCC-2998 colon
T-47D breast = system: T-47D breast
OVCAR-5 ovarian = system: OVCAR-5 ovarian
M14 melanoma = system: M14 melanoma
SK-OV-3 ovarian = system: SK-OV-3 ovarian
SW-620 colon = system: SW-620 colon
LOX IMVI melanoma = system: LOX IMVI melanoma
MDA-MB-231 breast = system: MDA-MB-231 breast
CAKI-1 renal = system: CAKI-1 renal
UACC-62 melanoma = system: UACC-62 melanoma

Nc1nc2cc(-c3ccc4ncnc(NCc5ccccc5)c4c3)ccc2o1
GI50 (HL-60(TB) leukemia): 10.4 µM
TGI (HL-60(TB) leukemia): 24 µM
GI50 (ACHN renal): 5.27 µM
TGI (ACHN renal): 18.2 µM
GI50 (TK-10 renal): 2.98 µM
TGI (TK-10 renal): 16.1 µM
GI50 (UO-31 renal): 4.01 µM
TGI (UO-31 renal): 18.3 µM
GI50 (MDA-MB-468 breast): 1.81 µM
TGI (MDA-MB-468 breast): 7.67 µM
GI50 (HOP-92 NSCLC): 2.11 µM
TGI (HOP-92 NSCLC): 7.5 µM
GI50 (PC-3 prostate): 12.7 µM
TGI (PC-3 prostate): 31.9 µM
GI50 (UACC-257 melanoma): 14.4 µM
TGI (UACC-257 melanoma): 32.2 µM
GI50 (SF-268 CNS): 10.9 µM
TGI (SF-268 CNS): 43.4 µM
GI50 (KM12 colon): 6.77 µM
TGI (KM12 colon): 25.6 µM
GI50 (IGROV1 ovarian): 1.98 µM
TGI (IGROV1 ovarian): 5.5 µM
GI50 (NCI-H23 lung): 10.9 µM
TGI (NCI-H23 lung): 35.6 µM
GI50 (HCT-15 colon): 6.45 µM
TGI (HCT-15 colon): 27.3 µM
GI50 (SN12C renal): 5.14 µM
TGI (SN12C renal): 18.3 µM
GI50 (OVCAR-4 ovarian): 7 µM
TGI (OVCAR-4 ovarian): 28.1 µM
GI50 (DU-145 prostate): 4.7 µM
TGI (DU-145 prostate): 20.5 µM
GI50 (MOLT-4 leukemia): 4.43 µM
TGI (MOLT-4 leukemia): 19 µM
GI50 (HOP-62 NSCLC): 10.7 µM
TGI (HOP-62 NSCLC): 34.3 µM
GI50 (NCI/ADR-RES ovarian): 11 µM
TGI (NCI/ADR-RES ovarian): 49.5 µM
GI50 (OVCAR-3 ovarian): 3.49 µM
TGI (OVCAR-3 ovarian): 21.6 µM
GI50 (K-562 leukemia): 11.2 µM
TGI (K-562 leukemia): 23.2 µM
GI50 (RPMI-8226 leukemia): 3.83 µM
TGI (RPMI-8226 leukemia): 22.3 µM
GI50 (SF-539 CNS): 4.08 µM
TGI (SF-539 CNS): 14.9 µM
GI50 (RXF 393 renal): 3.62 µM
TGI (RXF 393 renal): 16.3 µM
GI50 (MDA-MB-435): 11 µM
TGI (MDA-MB-435): 24.6 µM
GI50 (SK-MEL-5 melanoma): 12.2 µM
TGI (SK-MEL-5 melanoma): 28.1 µM
GI50 (NCI-H522 lung): 8.72 µM
TGI (NCI-H522 lung): 38.4 µM
GI50 (U251 CNS): 10.4 µM
TGI (U251 CNS): 32.6 µM
GI50 (NCI-H460 lung): 6.48 µM
TGI (NCI-H460 lung): 27.7 µM
GI50 (MCF7 breast): 2.47 µM
TGI (MCF7 breast): 11.1 µM
GI50 (NCI-H226 lung): 10.1 µM
TGI (NCI-H226 lung): 39.4 µM
GI50 (SR leukemia): 10.3 µM
TGI (SR leukemia): 27.6 µM
GI50 (SNB-19 CNS): 10.8 µM
TGI (SNB-19 CNS): 25.4 µM
GI50 (OVCAR-8 ovarian): 3.41 µM
TGI (OVCAR-8 ovarian): 17.7 µM
GI50 (HS 578T breast): 2.41 µM
TGI (HS 578T breast): 7.52 µM
GI50 (HCT-116 colon): 3.89 µM
TGI (HCT-116 colon): 17.5 µM
GI50 (SNB-75 CNS): 2.15 µM
TGI (SNB-75 CNS): 5.24 µM
GI50 (SK-MEL-2 melanoma): 14.7 µM
TGI (SK-MEL-2 melanoma): 30.6 µM
GI50 (COLO 205 colon): 14.4 µM
TGI (COLO 205 colon): 30 µM
GI50 (BT-549 breast): 4.31 µM
TGI (BT-549 breast): 16.7 µM
GI50 (SK-MEL-28 melanoma): 12.4 µM
TGI (SK-MEL-28 melanoma): 24.8 µM
GI50 (SF-295 CNS): 14.1 µM
TGI (SF-295 CNS): 35 µM
GI50 (HT29 colon): 7.45 µM
TGI (HT29 colon): 58.3 µM
GI50 (CCRF-CEM leukemia): 6.08 µM
TGI (CCRF-CEM leukemia): 30.2 µM
GI50 (A549 NSCLC): 4.16 µM
TGI (A549 NSCLC): 29.4 µM
GI50 (A498 renal): 3.55 µM
TGI (A498 renal): 18.1 µM
GI50 (786-0 renal): 13 µM
TGI (786-0 renal): 26.3 µM
GI50 (MALME-3M melanoma): 3.2 µM
TGI (MALME-3M melanoma): 13.3 µM
GI50 (EKVX NSCLC): 3.47 µM
TGI (EKVX NSCLC): 20.2 µM
GI50 (HCC-2998 colon): 9.11 µM
TGI (HCC-2998 colon): 23 µM
GI50 (T-47D breast): 10.4 µM
TGI (T-47D breast): 35.3 µM
GI50 (OVCAR-5 ovarian): 4.03 µM
TGI (OVCAR-5 ovarian): 16.9 µM
GI50 (M14 melanoma): 12.4 µM
TGI (M14 melanoma): 35.6 µM
GI50 (SK-OV-3 ovarian): 3.26 µM
TGI (SK-OV-3 ovarian): 12.1 µM
GI50 (SW-620 colon): 9.63 µM
TGI (SW-620 colon): 31.1 µM
GI50 (LOX IMVI melanoma): 3.07 µM
TGI (LOX IMVI melanoma): 15.9 µM
GI50 (MDA-MB-231 breast): 7.96 µM
TGI (MDA-MB-231 breast): 21.4 µM
GI50 (CAKI-1 renal): 7.7 µM
TGI (CAKI-1 renal): 21 µM
GI50 (UACC-62 melanoma): 14.7 µM
TGI (UACC-62 melanoma): 29.6 µM

— PubChem BioAssay (NCI)
